Reference: patent US20250262170A1, “COMBINATIONS OF BETA 2-ADRENERGIC RECEPTOR AGONISTS AND BETA 3-ADRENERGIC RECEPTOR AGONISTS, AND MEDICAL USES THEREOF” (ATROGI AB, priority 2022, published 2025)

Target: T1, human β3-adrenergic receptor (Homo sapiens, UniProt P13945)
T1 construct: expressed in transfected cells
Assay: cAMP levels in CHO-K1 cells expressing the human β3-adrenergic receptor
Type: cell-based
Settings: CHO-K1, 0.25 h, 15 min, read-out: Activity (intracellular cAMP compared to that of isoproterenol)
Description: CHO-K1 cells stably expressing the human β3-adrenergic receptors were serum-starved overnight and stimulated with an agonist, final concentration 1×10^−5 M, for 15 min in stimulation buffer (HBSS supplemented with 1% BSA, 5 mM HEPES and 1 mM IBMX, pH 7.4) The medium was then aspirated and to end the reaction, 100 μL of 95% EtOH was added to each well of the 24-well plate and cells were kept at −20° C. overnight. The next day EtOH was allowed to evaporate and 250 μL of lysis buffer (1% BSA, 5 mM HEPES and 0.3% Tween-20, pH 7.4) was added to each well. The plate was kept at −80° C. for 30 min and thawed in room temperature. Intracellular cAMP levels were detected using an alpha screen cAMP kit (6760635D from Perkin Elmer). The activity for each compound is compared to that of isoproterenol.

T1 sequence (P13945 whole entry): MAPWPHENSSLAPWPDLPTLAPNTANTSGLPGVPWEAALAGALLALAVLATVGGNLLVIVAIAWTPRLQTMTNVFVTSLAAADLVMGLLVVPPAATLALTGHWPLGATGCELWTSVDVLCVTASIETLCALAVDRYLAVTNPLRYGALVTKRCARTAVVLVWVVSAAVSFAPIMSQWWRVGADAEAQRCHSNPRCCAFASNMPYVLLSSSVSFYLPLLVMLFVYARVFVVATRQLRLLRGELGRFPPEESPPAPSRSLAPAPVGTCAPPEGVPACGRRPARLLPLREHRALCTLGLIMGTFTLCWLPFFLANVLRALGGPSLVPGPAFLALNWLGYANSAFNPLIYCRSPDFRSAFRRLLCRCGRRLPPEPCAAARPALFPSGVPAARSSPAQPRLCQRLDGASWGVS

Structure (SMILES)	Emax at 10 µM [%]
CNC(=O)N1CCC[C@@H](CC(C)(C)NC[C@H](O)c2cccc(F)c2)C1 [Compound 3, (S)-3-(2-(((R)-2-(3-fluorophenyl)-2-hydroxy-ethyl)amino)-2-methyl-propyl)-N-methylpiperidine-1-carboxamide]	> 75
COC(=O)N1CCC[C@@H](CC(C)(C)NC[C@H](O)c2cccc(F)c2)C1 [Compound 5, methyl (S)-3-(2-(((R)-2-(3-fluorophenyl)-2-hydroxy-ethyl)amino)-2-methyl-propyl)piperidine-1-carboxylate]	> 75
CC1(C)CC[C@H]([C@H](O)c2cccc(Cl)c2)N1 [Compound 58, (R)-(3-chlorophenyl)((R)-5,5-dimethylpyrrolidin-2-yl)-methanol]	50 to 75
CC(C)(C[C@@H]1CCCN(C(=O)C(F)(F)F)C1)NC[C@H](O)c1cccc(F)c1 [Compound 9, 2,2,2-trifluoro-1-((S)-3-(2-(((R)-2-(3-fluorophenyl)-2-hydroxyethyl)amino)-2-methylpropyl)piperidin-1-yl)-ethan-1-one]	50 to 75
CO[C@H]1CC[C@H](C(C)(C)NC[C@H](O)c2cccc(F)c2)CC1 [Compound 54, (R)-1-(3-fluorophenyl)-2-((2-((trans)-4-methoxycyclo-hexyl)propan-2-yl)amino)-ethan-1-ol]	50 to 75
CCCCNC[C@H](O)c1ccccc1F [Compound 64, (R)-2-(butylamino)-1-(2-fluorophenyl)ethan-1-ol]	> 75
O[C@H](c1cncc(F)c1)C12CCC(COc3ccc(OC(F)(F)F)cc3)(CC1)N2 [Compound 32, (R)-(5-fluoropyridin-3-yl)((1r,4R)-4-((4-(trifluoro-methoxy)phenoxy)methyl)-7-azabicyclo[2.2.1]heptan-1-yl)methanol]	> 75
CO[C@H]1CC[C@H](C[C@@H]2CC[C@H]([C@H](O)c3ccccc3F)N2)CC1 [Compound 49, (R)-(2-fluorophenyl)((2R,5S)-5-(((trans)-4-methoxycyclo-hexyl)methyl)pyrrolidin-2-yl)-methanol]	50 to 75
CC(C)(C[C@H]1CC[C@H](NS(C)(=O)=O)CC1)NC[C@H](O)c1ccc(F)c(N)c1F [Compound 23, N-((trans)-4-(2-(((R)-2-(3-amino-2,4-difluorophenyl)-2-hydroxyethyl)amino)-2-methylpropyl)cyclohexyl)-methanesulfonamide]	> 75
O[C@H](c1cccc(F)c1)C12CCC(Cc3ccccc3)(CC1)N2 [Compound 43, (R)-(4-benzyl-7-azabicyclo-[2.2.1]heptan-1-yl)(3-fluoro-phenyl)methanol]	50 to 75
COCC12CC(C1)[C@H]([C@H](O)c1cccc(F)c1)N2 [Compound 29, (R)-(3-fluorophenyl)((R)-1-(methoxymethyl)-2-aza-bicyclo[2.1.1]hexan-3-yl)-methanol]	50 to 75
CC(C)(C[C@H]1CC[C@H](NS(=O)(=O)C2CC2)CC1)NC[C@H](O)c1cccc(F)c1 [Compound 25, N-((trans)-4-(2-(((R)-2-(3-fluorophenyl)-2-hydroxy-ethyl)amino)-2-methyl-propyl)cyclohexyl)cyclo-propanesulfonamide]	> 75
CCCCS(=O)(=O)N[C@H]1CC[C@H](CC(C)(C)NC[C@H](O)c2cccc(F)c2)CC1 [Compound 13]	> 75
CCC[C@H](C)NC[C@H](O)c1cccc(O)c1 [Compound 68, 3-((R)-1-hydroxy-2-(((S)-pentan-2-yl)amino)ethyl)-phenol]	> 75
CC(C)(C[C@H]1CC[C@H](S(N)(=O)=O)CC1)NC[C@H](O)c1cccc(F)c1 [Compound 22, (trans)-4-(2-(((R)-2-(3-fluorophenyl)-2-hydroxy-ethyl)amino)-2-methyl-propyl)cyclohexane-1-sulfonamide]	> 75
O[C@H](c1cccc(F)c1)[C@H]1CC[C@@H](Cc2ccc(Cl)cc2)N1 [Compound 42, (R)-((2R,5S)-5-(4-chloro-benzyl)pyrrolidin-2-yl)(3-fluorophenyl)methanol]	> 75
CN(C)C(=O)N1CCC[C@@H](CC(C)(C)NC[C@H](O)c2cccc(F)c2)C1 [Compound 4, (S)-3-(2-(((R)-2-(3-fluoro-phenyl)-2-hydroxyethyl)-amino)-2-methylpropyl)-N,N-dimethylpiperidine-1-carboxamide]	> 75
O[C@H](c1cccc(F)c1)[C@H]1CCC2(CCCC2)N1 [Compound 56, (R)-(3-fluorophenyl)((R)-1-azaspiro[4.4]nonan-2-yl)-methanol]	> 75
CNS(=O)(=O)[C@H]1CC[C@H](CC(C)(C)NC[C@H](O)c2cccc(F)c2)CC1 [Compound 27, (trans)-4-(2-(((R)-2-(3-fluorophenyl)-2-hydroxy-ethyl)amino)-2-methy-propyl)-N-methyl-cyclohexane-1-sulfonamide]	> 75

Structure (SMILES)	Emax at 10 µM [%]
CCOCC12CCC([C@H](O)c3cncc(F)c3)(CC1)N2 [Compound 38, (R)-(4-(ethoxymethyl)-7-azabicyclo[2.2.1]heptan-1-yl)(5-fluoropyridin-3-yl) methanol]	50 to 75
CC1(NC[C@H](O)c2cccc(F)c2)CC1 [Compound 63, (R)-1-(3-fluorophenyl)-2-((1-methylcyclopropyl)amino)-ethan-1-ol]	50 to 75
CC(C)(C[C@H]1CC[C@H](O)CC1)NC[C@H](O)c1cccc(F)c1 [Compound 52, (trans)-4-(2-(((R)-2-(3-fluorophenyl)-2-hydroxy-ethyl)amino)-2-methyl-propyl)cyclohexan-1-ol]	> 75
CCOC(=O)CO[C@H]1CC[C@H](C(C)(C)NC[C@H](O)c2cccc(F)c2)CC1 [Compound 41, ethyl 2-(((1R,4r)-4-(2-(((R)-2-(3-fluorophenyl)-2-hydroxyethyl)amino)propan-2-yl)cyclohexyl)oxy)acetate]	> 75
CCCCNCC(O)c1ccc(F)c(N)c1F (stereo not shown) [Compound 67, 1-(3-amino-2,4-difluoro-phenyl)-2-(butylamino)ethan-1-ol]	50 to 75
CC(C)(C)NC[C@H](O)c1cccc(N)c1F [Compound 61, (R)-1-(3-amino-2-fluoro-phenyl)-2-(tert-butylamino)-ethan-1-o]	> 75
CS(=O)(=O)N[C@H]1CC[C@H](C[C@@H]2CC[C@H]([C@H](O)c3cccc(F)c3)N2)CC1 [Compound 24, N-((trans)-4-(((2S,5R)-5-((R)-(3-fluorophenyl)-(hydroxy)methyl)pyrrolidin-2-yl)methyl)cyclohexyl)-methanesulfonamide]	> 75
CO[C@H]1CC[C@@H](CC(C)(C)NC[C@H](O)c2cccc(F)c2)CC1 [Compound 53, (R)-1-(3-fluorophenyl)-2-((1-((cis)-4-methoxycyclohexyl)-2-methylpropan-2-yl)-amino)ethan-1-ol]	50 to 75
CC(C)(C)[C@H]1CC[C@H]([C@H](O)c2cccc(F)c2)N1 [Compound 57, (R)-((2R,5R)-5-(tert-butyl)-pyrrolidin-2-yl)(3-fluoro-phenyl)methanol]	50 to 75
CO[C@H]1CC[C@@H](CC(C)(C)NC[C@H](O)c2ccc(F)c(N)c2F)CC1 [Compound 36, (R)-1-(3-amino-2,4-difluoro-phenyl)-2-((1-((cis)-4-methoxycyclohexyl)-2-methylpropan-2-yl)amino)-ethan-1-ol]	> 75
CO[C@H]1CC[C@@H](C[C@@H]2CC[C@H]([C@H](O)c3cccc(F)c3F)N2)CC1 [Compound 7, (R)-(2,3-difluorophenyl)-((2R,5S)-5-(((cis)-4-methoxycyclohexyl)methyl)-pyrrolidin-2-yl)methanol]	50 to 75
CC(C)(NC[C@H](O)c1cccc(F)c1)[C@H]1CC[C@H](NC(=O)c2ccccc2)CC1 [Compound 44, N-((trans)-4-(2-(((R)-2-(3-fluorophenyl)-2-hydroxy-ethyl)amino)propan-2-yl)-cyclohexyl)benzamide]	> 75
CC(C)(C[C@H]1CC[C@H](NC(=O)C(F)(F)F)CC1)NC[C@H](O)c1cccc(F)c1 [Compound 33, 2,2,2-trifluoro-N-((1R,4r)-4-(2-(((R)-2-(3-fluorophenyl)-2-hydroxyethyl)amino)-2-methylpropyl)cyclohexyl)-acetamide]	> 75
CC(C)(C)NCC(O)c1ccncc1O (stereo not shown) [Compound 60, 4-(2-(tert-butylamino)-1-hydroxyethyl)pyridin-3-ol]	> 75
CN(C)C(=O)N1CCC[C@@H](CC(C)(C)NC[C@H](O)c2cncc(F)c2)C1 [Compound 2, (S)-3-(2-(((R)-2-(5-fluoro-pyridin-3-yl)-2-hydroxy-ethyl)amino)-2-methyl-propyl)-N,N-dimethyl-piperidine-1-carboxamide]	50 to 75
CCC[C@@H](C)NC[C@H](O)c1cccc(F)c1 [Compound 66, (R)-1-(3-fluorophenyl)-2-(((R)-pentan-2-yl)amino)-ethan-1-ol]	> 75
CC(C)(C[C@H]1CC[C@H](NS(=O)(=O)C(F)(F)F)CC1)NC[C@H](O)c1cccc(F)c1 [Compound 30, 1,1,1-trifluoro-N-((trans)-4-(2-(((R)-2-(3-fluorophenyl)-2-hydroxyethyl)amino)-2-methylpropyl)cyclohexyl)-methanesulfonamide]	> 75
CC1(NC[C@H](O)c2cccc(O)c2)CCC1 [Compound 62, (R)-3-(1-hydroxy-2-((1-methylcyclobutyl)amino)-ethyl)phenol]	> 75
